The values that follow come from US20220281868A1, “MACROCYCLIC DERIVATIVES AS FACTOR XIA INHIBITORS” (MEDSHINE DISCOVERY INC., priority 2019, published 2022).

The IC50 is the midpoint of a concentration-inhibition curve.

One test deals with T1, human factor XIa (Homo sapiens, UniProt P03951).
T1 construct: Enzyme, Human Factor XIa (Human Factor XIa, Abcam, Cat #ab62411); purchased Abcam ab62411
As to the kind of experiment: Screening test of enzyme inhibitory activity on hFXIa. The format is biochemical. Particulars: substrate S-2366/S-2306, 37° C. 10 minutes, absorbance 405 nm, pH 7.4. As for the experimental part:
1. Screening Test of Enzyme Inhibitory Activity on hFXIa (Human Factor XIa)
(§1) Purpose of the Experiment:
Detection of the inhibitory activity of the compounds of the present disclosure on human factor XIa
1) Experimental buffer pH 7.4
100 mM Tris-HCl (Sigma, catalog number: T2663, batch number: SLBG2775)
200 mM NaCl (Sigma, catalog number: 13423, batch number: SZBB2360V)
2) Enzymes and Substrates
Enzyme, Human Factor XIa (Human Factor XIa, Abcam, Cat #ab62411): Total amount: 50 μg. Dissolved with experimental buffer and packed separately.
Substrate S-2366 (DiaPharma, catalog number: S821090): 25 mg
3) Instruments and Consumables
SpectraMax 340PC Multifunctional Microplate Reader (Molecular Devices)
384-well black transparent reaction plate (Corning Cata #3712)
Echo Liquid Workstation (Labcyte)
Echo 384-well polypropylene compound plate (Labcyte-P-05525) was used.
Echo 384 Shallow Pore Polypropylene Compound plate (Labcyte-LP-0200, 2.5-12 μL) was used.
Multidrop automatic dispenser (Thermo Scientific)
Multidrop Consumables (Thermo Scientific-24073290) […]
7) The reaction plate was placed in SpectraMax 340PC and incubated at 37° C. for 10 minutes, and the absorbance was detected at 405 nm.
8) Data were analyzed using GraphPad Prism 5.0
% Inhibition rate=100%×[1−(sample reading-low signal average value)/(high signal average value-low signal average value)]
IC50 was analyzed using 4-factor linear regression: […]

The test system of the next test is human plasma. As to the kind of experiment: Determination of aPTT (activated partial thromboplastin time) in human plasma in vitro. The conditions noted are these: coagulation time.
Description: 2. Determination of aPTT (Activated Partial Thromboplastin Time) in Human Plasma In Vitro
as §1
Detection of the anticoagulant effect of the compounds of the present disclosure on human plasma in vitro
1) Coagulation quality control plasma: produced by TECO, Germany, batch number: 093B-J186A
2) aPTT test solution: produced by TECO, Germany, batch number: 20002745; CaCl2): produced by TECO, Germany, batch number: 031N-J073A; DMSO: Sangon Bioengineering (Shanghai) Co., Ltd., batch number: BB02BA0001
3) Instrument: Germany Meichuang MC-4000 blood coagulation instrument
1) Sample solution preparation: 10 mM compound stock solution was prepared with DMSO, and then serially diluted with DMSO as follows: […], 2500, 625, 156.25, 39.06, 9.76, 2.44 μM; then series of concentrations were diluted with tris(hydroxymethylaminomethane) buffer (containing 5% Tween 80) 10 times for use, and the drug to plasma volume ratio was 1:9 during detection. […]
4) Test detection: According to the instructions of the kit, the sample solution to be tested or the reference solution were added into the 37° C. preheated colorimetric cup, preheated at 37° C. for 2 min, aPTT reagent was added, incubated at 37° C. for 3 min, 0.02 M CaCl2 (preheated at 37° C.) was added, and the coagulation time was recorded.

T1 sequence (P03951 388-625 limits assumed): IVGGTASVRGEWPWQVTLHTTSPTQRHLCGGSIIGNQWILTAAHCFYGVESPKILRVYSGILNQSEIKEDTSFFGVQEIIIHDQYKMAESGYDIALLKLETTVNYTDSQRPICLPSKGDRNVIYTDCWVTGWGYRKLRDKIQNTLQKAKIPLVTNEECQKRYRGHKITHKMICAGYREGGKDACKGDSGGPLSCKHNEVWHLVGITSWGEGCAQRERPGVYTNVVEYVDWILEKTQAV
T1 sequence (P03951 19-387 partner limits assumed): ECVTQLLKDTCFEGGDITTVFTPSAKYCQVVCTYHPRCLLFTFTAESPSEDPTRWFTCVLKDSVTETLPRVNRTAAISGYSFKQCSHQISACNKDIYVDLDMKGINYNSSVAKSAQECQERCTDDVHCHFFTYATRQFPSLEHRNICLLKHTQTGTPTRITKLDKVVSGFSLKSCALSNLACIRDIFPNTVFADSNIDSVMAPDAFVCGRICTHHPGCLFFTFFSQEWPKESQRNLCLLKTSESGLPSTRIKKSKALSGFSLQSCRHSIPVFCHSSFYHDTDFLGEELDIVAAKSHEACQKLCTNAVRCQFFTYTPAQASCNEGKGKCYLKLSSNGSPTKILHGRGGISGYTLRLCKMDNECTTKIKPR

For the compound `C[C@@H]1CCCC(c2coc(-c3cc(Cl)ccc3-n3cc(C#N)nn3)cc2=O)c2cc(ccn2)-c2c(cnn2C(F)F)NC1=O` (stereo partly shown) [Compound 4], at human factor XIa, the IC50 came to 2.28 nM. This lies in the single-digit nanomolar range. `[2H]C([2H])([2H])n1ncc2c1-c1ccnc(c1)C(c1coc(-c3c(-n4cc(Cl)nn4)ccc(Cl)c3F)cc1=O)CCCC(C)C(=O)N2` (stereo not shown) [Compound 8-1] displayed an aPTT2x with human plasma of 4.94 µM. In addition, the midpoint of inhibition against human factor XIa, the IC50, lay at 3.5 nM. For Enoxaparin [reference compound], the aPTT2x with human plasma was determined as 4.61 µM.
